By IC50 is commonly meant the concentration that gives 50% inhibition.

Here are results for two molecules from PMC8876511, “Two out of Three Musketeers Fight against Cancer: Synthesis, Physicochemical, and Biological Properties of Phosphino Cu^I, Ru^II, Ir^III Complexes” (Pharmaceuticals, 2022).

Series [1] concerns PANC-1 cells. Description: MTT cytotoxicity assay, PANC-1. It is filed as cell-based, human. The procedure: (§1) Moreover, to investigate the activity of synthesized complexes as potential anticancer agents, their cytotoxicity toward a series of human cancer cell lines and a non-cancer cell line (HaCaT) was evaluated using the MTT assay. […] In addition, we also determined the cytotoxic activity of free ligands toward selected cancer cells. […] However, this effect depends on the cell line. […] The best values of cytotoxic activity of compounds have been obtained after 72 h of cell incubation. Additionally, synthesized complexes had high sensitivity to A549 cells, so this cell line was selected as the research subject for antitumor activity.
(§2) Since most of the studied compounds are insoluble in aqueous media (Dulbecco’s Modified Eagle’s Medium or minimum essential medium (MEM, Corning), therefore, they needed to be pre-dissolved in DMSO for biological tests. DMSO concentration was kept below 1% in each tested concentration of each compound. Cytotoxicity was assessed by MTT assay performed according to the protocols described previously in the following experimental approaches: 6 h + 24 h, 24 h + 24 h, and 72 h + 24 h. In brief, 5×10^3 per well (0.2 mL) in the two first approaches, while 1×10^4 cells in the case of longer incubation time were seeded in 96-well flat-bottom microtiter plate, were incubated with the tested complexes at various ranges of concentrations. After an appropriate incubation time of 6, 24, or 72 h, the cells were washed thee time with PBS and fresh medium was applied for a further 24 h in each approach. Various compound concentrations (dilutions in proper medium supplemented with 1% FBS) were tested in five replicates and repeated at least three times. Determined values of IC50 (concentration of a drug required to inhibit the growth of 50% of the cells) are given as mean + S.D. (Standard Deviation). IC50 values were determined, from the plots of cell viability in the presence of various concentrations of each compound by matching dose–response curves and using the Origin 9.0 software. Furthermore, post-treatment survival assessment of the treated cells was analyzed under an inverted fluorescence microscope (Olympus IC51, Japan) with an excitation filter 470/20 nm. For this, cells were stained with two versatile fluorescence dyes: fluorescein diacetate (FDA, 5 mg/mL) and propidium iodide (PI, 5 mg/mL) in standard conditions in the dark for 20 min. Before visualization, dyes were removed and cells were washed with PBS twice.
(In general: Tetrazolium dyes change colour on reduction, which living cells bring about.)

Series [2] relates to PANC-1 cells. Description: MTT cytotoxicity assay, PANC-1. The class given is cell-based, human. As to conditions: 48 h.
In a further series the test system is MCF-7 cells. Description: MTT cytotoxicity assay, MCF-7. The class given is cell-based, human. As to the method:
as §1
(§3) MCF7 cell line (human breast adenocarcinoma, morphology: epithelial-like, ATCC: HTB-22) and A549 cell line (human lung adenocarcinoma, morphology: epithelial, ATCC: CCL-185); HaCaT (human keratinocyte) were cultured in Dulbecco’s Modified Eagle’s Medium (DMEM, Corning, Poland) with phenol red, supplemented with 10% fetal bovine serum (FBS) and with 1% streptomycin/penicillin. Du-145 cell line (human prostate carcinoma); derived from metastatic site: brain was cultured in minimum essential medium (MEM, Corning) with only 10% fetal bovine serum (FBS). Cultures were incubated at 37 °C under a humidified atmosphere containing 5% CO2. Cells were passaged using a solution containing 0.05% trypsin and 0.5 mM EDTA. All media and other ingredients were purchased from ALAB, Poland.
as §2, with “Cytotoxicity was assessed by MTT assay performed according to the protocols described previously in the following experimental approaches: 6 h + 24 h, 24 h + 24 h, and 72 h + 24 h.” left out, “After an appropriate incubation time of 6, 24, or 72 h, the cells were washed thee time with PBS and fresh medium was applied for a further 24 h in each approach.” left out

Series [3] is described as follows: Partition coefficient, shake-flask method (n-octanol/PBS). It is filed as physicochemical. The procedure: The partition coefficient was determined by the shake-flask method. A small amount of compound was dissolved in 5 mL PBS-saturated n-octanol. The sample was sonicated until all the compound was dissolved. Next, 5 mL of PBS saturated with n-octanol was added and the experiment proceeded as before. The resulting mixture was vortexed for 30 min in horizontal position. The sample was centrifuged for 2 min at 3700 rpm to obtain a phase separation. Next, 2 mL of each phase was taken. The next steps were a 5 min sonication and measurement of absorption spectra of the obtained solutions. The calibration curve was prepared in order to determine the concentration of the tested compounds in individual solutions. It was made using the absorption intensity of the compounds in series dilution solutions in PBS saturated with octanol or octanol saturated with PBS in the concentration range c = 1–100 nM.

The next series has as its system Du-145 cells. Briefly: MTT cytotoxicity assay, Du-145. The class given is cell-based, human. As to the method:
as §1, §3
as §2, with “Cytotoxicity was assessed by MTT assay performed according to the protocols described previously in the following experimental approaches: 6 h + 24 h, 24 h + 24 h, and 72 h + 24 h.” left out, “After an appropriate incubation time of 6, 24, or 72 h, the cells were washed thee time with PBS and fresh medium was applied for a further 24 h in each approach.” left out

In the next series the test system is A549 cells. Description: Cell cycle analysis by PI staining, flow cytometry. It is filed as cell-based, human. As to conditions: synchronized A549, various concentrations, 24 h. The procedure: Antitumor drugs induce cell cycle arrest by inhibiting DNA synthesis and enhancing DNA damage, ultimately leading cancer cells to apoptosis. We further studied the influence of Ir(III) and Ru(II) complexes on cell cycle distribution. Synchronized A549 cells were treated with Ir(III) (1a, 2a) or Ru(II) (1b, 2b) at various concentrations for 24 h. Cells were stained with propidium iodide (PI) and analyzed by flow cytometry. […] An arrest in S-phase implies that the cell cannot duplicate its DNA. Other authors recently reported a similar effect for iridium(III)polypyridyl complexes. Moreover, the percentage of the G2/M population also increases. However, higher doses (>10 μM) of Ir(III) complexes can enhance G0/G1-phase arrest.
The serum starvation protocol was used to synchronize cell cultures. A549 cells were seeded in a 12-well plate in a growth medium with 20% FBS overnight. Then, the cultures were washed by PBS and changed to a serum-free medium. After serum starvation for 24 h, cells were released into the cell cycle by the addition of serum and tested compounds solution for 24 h. The cells were then detached from the plate using trypsin. […] Cells were analyzed with the Guava® easyCyte™ flow cytometer equipped with a 488 nm laser. The obtained data were analyzed using InCyte Software (MerckMillipore, Burlington, MA, USA).

For the next series, the system named is HaCaT cells. Description: MTT cytotoxicity assay, HaCaT (non-cancer). The class given is cell-based, human. As to conditions: 48 h.

On to `CCN(CC)C[P+](c1ccccc1)(c1ccccc1)[Ir-3]([Cl])([Cl])[C]1(C)C(C)=C(C)C(C)=C1C` [1a, Ir(η^5-Cp*)Cl2Ph2PCH2N(CH2CH3)2], for which the IC50 with PANC-1 cells [1] (24 h) was 143 ± 3 µM; in the series on PANC-1 cells [1] (72 h) it was 91 ± 13 µM; in the series on PANC-1 cells [2], 204 ± 29 µM; in the series on MCF-7 cells (24 h), 189 ± 9 µM; in the series on MCF-7 cells (48 h), 184 ± 6 µM; in the series on MCF-7 cells (72 h), 85 ± 8 µM. The half-inhibitory concentration (IC50) with Du-145 cells (24 h) is 90 ± 5 µM; with Du-145 cells (48 h), 85 ± 9 µM; in the series on Du-145 cells (72 h), 19 ± 3 µM; in the series with HaCaT cells it was 446 ± 26 µM. The “Experimental LogP (logPo/w)” value in series [3] stood at 3.03. Moreover, in the series with A549 cells, the cell cycle perturbations result is “concentration-dependent cell cycle perturbations”.

“Ru(η^6-p-cymene)Cl2Ph2PCH2N(CH2CH3)2 [1b]”: the concentration for half-maximal inhibition (IC50) in the series on PANC-1 cells [1] (24 h) came to 146 ± 5 µM; with PANC-1 cells [1] (72 h), 128 ± 14 µM; in the series with PANC-1 cells [2] it was 305 ± 13 µM; with MCF-7 cells (24 h), 295 ± 12 µM; in the series on MCF-7 cells (48 h), 352 ± 25 µM; in the series with MCF-7 cells (72 h), 145 ± 15 µM. The IC50 with Du-145 cells (24 h) was 122 ± 11 µM; in the series on Du-145 cells (48 h), 126 ± 12 µM; with Du-145 cells (72 h) it was 23 ± 2 µM; in the series on HaCaT cells it was 545 ± 33 µM. In addition, the “Experimental LogP (logPo/w)” value in series [3] is 3.1. In addition, the cell cycle perturbations entry with A549 cells is reported as “concentration-dependent cell cycle perturbations”.
